Values of other authors in publication PMC13095657, “A two-step mechanism for sugar translocation” (Nature Structural & Molecular Biology, 2026).

Molecular target: T1, XylE (Escherichia coli, UniProt P0AGF4)
T1 construct: made in house; host or cells: E. coli BL21-Gold (DE3)
Conditions: XylE WT in liposomes; ref https://www.jbc.org/action/showPdf?pii=S0021-9258%2821%2901315-6; read-out: KM by SSM

T1 sequence (P0AGF4 whole entry): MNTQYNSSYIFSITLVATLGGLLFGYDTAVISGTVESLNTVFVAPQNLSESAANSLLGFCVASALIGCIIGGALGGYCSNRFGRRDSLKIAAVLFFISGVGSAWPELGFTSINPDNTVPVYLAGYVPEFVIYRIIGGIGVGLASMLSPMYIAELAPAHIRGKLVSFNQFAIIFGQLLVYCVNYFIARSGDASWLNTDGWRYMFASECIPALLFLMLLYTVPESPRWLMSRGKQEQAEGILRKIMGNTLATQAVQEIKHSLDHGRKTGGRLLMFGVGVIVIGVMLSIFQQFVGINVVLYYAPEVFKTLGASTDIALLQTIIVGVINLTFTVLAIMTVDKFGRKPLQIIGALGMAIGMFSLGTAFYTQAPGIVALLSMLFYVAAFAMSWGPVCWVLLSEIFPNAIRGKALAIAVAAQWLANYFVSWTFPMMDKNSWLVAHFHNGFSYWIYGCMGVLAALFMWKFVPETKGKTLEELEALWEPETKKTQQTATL

OC1OC[C@@H](O)[C@H](O)[C@H]1O (stereo partly drawn) [D-xylose]
Km: 1700 µM
